On to `COC(=O)CC1COc2ccc(N)cc2C1` (stereo not given), for which the melting point (usually the temperature, or range, at which the solid turns liquid) was in the range of 104 to 106 °C.
To `CC(C)CC(NC(=O)C1CCCN1)C(=O)NCC(=O)Oc1c(Cl)c(Cl)c(Cl)c(Cl)c1Cl` (stereo not given) belongs 169 to 171 °C; to `CCCCCCCCCCCCCCCCCCOc1coc(CO)cc1=O`, 71 to 73 °C; to `CCCCc1nc2c(N)nc3ccccc3c2n1CCNS(=O)(=O)c1ccc(C)cc1`, 187 to 188 °C.
`CCOC(=O)c1c(C(F)(F)F)nc(C(F)(F)Cl)c(C(=O)OC)c1NN(C)C`: the melting point lay in the range of 97 to 98 °C.
With `CC(Cn1c(=S)[nH]c2ccccc2c1=O)N1CCC(C(=O)c2ccc(F)cc2)CC1` (stereo not given), the melting point is 161 °C.
As to `CCCCCCCCCCOc1cnc(-c2ccccc2C#CCC(C)O)nc1` (single isomer, unassigned; (-)), the melting point is 71 to 72 °C.
As for `CCOC1=C(N(C(C)=O)C(C)C)C(=O)c2cnn(C)c2C1=O`, the melting point was 154 to 155 °C.
As to `CCc1c(-c2ccc(OCc3ccccc3)cc2)c2c(C(=O)O)c(C(=O)O)c3c(OC)ccc1n32`, the melting point was in the range of 198 to 200 °C.
Compound `CC(=O)c1cn(C)c2ccc(F)cc12` came in with a melting point of 158 to 160 °C.
As to `CC(=C(c1ccc(F)cc1)c1ccc(F)cc1)c1nnnn1C`, the melting point lay in the range of 146 to 147 °C.
The compound `C#Cc1ccc(C23OCC(c4ccc(F)c(F)c4)(CO2)CO3)cc1` yielded a melting point of 204 to 205 °C.
With `CSCC(=O)[C@H](CC(C)C)NC(=O)[C@H](CC(C)C)NC(=O)OCc1ccccc1` the figure was 96 to 97 °C; with `O=c1[nH]c2ncc(-c3cccnc3)nc2n1CC1CCCCC1`, 205 °C.
`Nc1ccc(Cl)cc1NCC1CCCCC1`: the melting point came out at 62 °C.
In the case of `OCCNC(=S)NC(=Nc1cccc2ccccc12)c1ccccc1`, the melting point fell in the range of 131 to 132 °C.
`CC1CNc2c(ccc(NC3=NCCN3)c2Br)N1` (single isomer, unassigned; (+)): the melting point fell in the range of 203 to 205 °C.
`CCCNCc1cnc2c(C)c(NC(=O)c3ccc(OC[C@@H]4CCCO4)cc3)ccc2c1` gave a melting point of 121 to 122 °C.
Compound `CCCc1nc2c(N)nc3ccccc3c2n1OCC` displayed a melting point of 198 to 199 °C.
For the compound `CCN(c1nc(NCCO)nc(N(CC)C2CC(C)(C)NC(C)(C)C2)n1)C1CC(C)(C)NC(C)(C)C1`, the melting point was in the range of 184 to 185 °C.
On to `O=c1ccc2c3ccccc3[nH]c2n1-c1ccccc1`, for which the melting point fell in the range of 308 to 309 °C.
With `CCOC(=O)/C=C/c1ccccc1C1C(C(=O)OCC)=C(C)NC(C)=C1C(=O)OCC` the figure was 130 to 131 °C; with `CCOC(=O)/C=C/c1cc(OCc2cn(-c3ccc(C(F)(F)F)cn3)nc2C(C)C)nn1C`, 105 to 106 °C; with `NC1(Cl)C=CN=C(Cl)N1` (stereo not given), 55 to 56 °C.
To `CS(=O)(=O)Nc1ccc(Nc2nc(NC3CCCC3)c3nc[nH]c3n2)cc1` belongs 261 to 265 °C; to `CCC(OC1OC(COC(C)=O)C(OC(C)=O)C(OC(C)=O)C1OC(C)=O)C(=O)O` (stereo not given), 98 to 100 °C; to `CC(=O)CC(=O)OCCCOC(=O)c1ccc(OCCn2ccnc2)cc1`, 49.5 to 51.5 °C.
As for `OC(CN1CCNCC1)Cn1c2ccccc2c2cc(-c3ccccc3)ccc21` (stereo not given), the melting point was 120 °C.
`O=C1C2CC2C(=O)N1CCC1=CCCCC1` (stereo not given) yielded a melting point of 60 to 61 °C.
The compound `CCc1cc(O)c2c(ccc3nc[nH]c32)n1` came in with a melting point of 309 to 317 °C.
Compound `CCOC(CNC(=O)Nc1ccc(-n2cncn2)cc1)OCC` returned a melting point of 139 to 140 °C.
To `N#Cc1cc(C=O)ccc1-n1cnc([N+](=O)[O-])n1` belongs 170 to 172 °C.
In turn, `COc1ccc(C(=O)c2ccc(O)cc2)c(OC(C)(C)C(=O)OC(C)(C)C)c1` had a melting point of 172 to 173 °C.
To `Cc1ccc(COC(=O)NC(CO)Cc2ccc(O)cc2)cc1` (stereo not given) belongs 128 to 129 °C; to `Cc1cccnc1NC(=O)Nc1cccc2c1C1CC(=O)CCN1C2=O` (stereo not given), greater than 260 °C.
Consider `CS(=O)C1CC(=O)N1CC(=O)NCc1ccccc1` (single isomer, unassigned; (-)), for which the melting point lay in the range of 138 to 140 °C.
In the case of `NC(=O)CCCCCCCCCCC(Cl)(Cl)C(=O)O`, the melting point fell in the range of 93 to 94 °C.
`CC1C(=O)N(c2ccccc2)C(=S)N1c1ccc(Oc2ccccc2)cc1` (stereo not given) gave a melting point of 141 °C.
In the case of `O=C(Nc1ccccc1OC(=O)c1ccccc1)c1cc(Cl)c(OC(=O)c2ccccc2)c(Cl)c1`, the melting point was in the range of 157 to 160 °C.
Consider `c1cc(CN2CCCCC2)cc(OCCCNc2nnc3ccccn23)c1`, for which the melting point is 150 to 151 °C.
With `Cn1nnnc1-c1cn(C)c2cc(OC(F)F)ccc2c1=O`, the melting point fell in the range of 225 to 228 °C.
Compound `CCCOc1ccccc1-c1ccc(-c2nnn[nH]2)c(=O)[nH]1` yielded a melting point of 229 to 231 °C.
With `NC(=O)c1cc(F)c(-n2ncc(Cl)c(Cl)c2=O)cc1F` the figure was greater than 260 °C; with `O=c1c2ccccc2cc2n1CCS2(=O)=O`, 208 to 211 °C; with `C[C@@H]([C@@H](O)c1ccc(O)cc1)N1CCC(O)(c2ccccc2)CC1` (relative stereo), 202 to 204 °C.
In turn, `O=C(Nc1ccc(C(F)(F)F)cc1)N1CC2CSc3cc(Cl)ccc3C2=N1` (stereo not given) showed a melting point of 188 to 192 °C.
In turn, `CCC(=O)NCCC1c2cc(OC)ccc2-c2ccc(OC)cc21` yielded a melting point of 139 to 140 °C.
The compound `CCCCCCC(C)(C)c1cc(O)cc(O)c1` gave a melting point of 93 to 95 °C.
In turn, `CC(C)n1nc(COc2ccccc2CC(=O)O)cc1OCc1ccc2ccccc2n1` yielded a melting point of 116 to 117 °C.
To `CN(C)C=Cc1nc2ccc(F)cc2c(=O)n1-c1cccnc1Cl` belongs 197 to 200 °C; to `C[C@H](CC(F)(F)F)[C@@H](CO)NS(=O)(=O)c1ccc(Cl)s1`, 132 to 133 °C.
For `Cc1cc(C(N)=O)c(N)s1`, the melting point was 140 to 141 °C.
The compound `O=C(O)C1CNC(C(=O)O)c2[nH]c3ccccc3c21` (stereo not given) showed a melting point of 230 to 231 °C.
As to `CNC(=O)COc1nc(N)nc(-c2ccccc2)c1-c1ccc(=O)n(C(C)C)n1`, the melting point was in the range of 204 to 206 °C.
With `Cc1cc2c(c(C)c1S(=O)(=O)C[N+](=O)[O-])CCCC(C)(C)O2` the figure was 100 to 101 °C; with `CCCCC1(CCCC)CCc2c(O)cccc2C1O` (stereo not given), 82 to 83 °C.
`O=[N+]([O-])c1c(SCc2ccccc2)ccc2ccncc12` came in with a melting point of 151 to 153 °C.
For `CC(C)OC(=O)Nc1ccc(Cl)c(-c2ccnc3c(C(=O)c4cccs4)cnn23)c1`, the melting point fell in the range of 234 to 236 °C.
Compound `CCOC(=O)C1=C(N)N=C(OCC)C(C(=O)OCC)C1c1ccc(C)cc1` (stereo not given) had a melting point of 119 °C.
Compound `Cc1c[nH]c2c1CC1CNCCC1C2` (stereo not given) yielded a melting point of 151 to 153 °C.
In turn, `FC(F)(F)c1ccnc(Oc2ccc(CCNc3ncnc4nccnc34)cc2)c1` showed a melting point of 147 to 149 °C.
With `Cn1c2ncccc2c(=O)n2nccc12` the figure was 249 °C; with `C=C(C)C(=O)OC1c2nccnc2C(=O)N1c1ccc2ccc(Cl)nc2n1` (stereo not given), 255 °C; with `NS(=O)(=O)CCCSc1ccc2ncc(Cl)n2n1`, 136 to 137 °C.
`COC(=O)[C@H](COCc1ccccc1)NC(=O)Nc1n[nH]c(=S)s1` had a melting point of 84 to 86 °C.

Values taken from a melting point compilation (Tetko et al.; mined from patent text by program, amines drawn as free bases though some values may be those of a salt).
